One series deals with T1, human HSD17B11 (Homo sapiens, UniProt Q8NBQ5).
T1 construct: human HSD17B11 (residues 2-300, NP_057329.3); 10x His (N); TEV protease site (N); made in house; host or cells: Sf9 (baculovirus)
T1 sequence (Q8NBQ5 2-300): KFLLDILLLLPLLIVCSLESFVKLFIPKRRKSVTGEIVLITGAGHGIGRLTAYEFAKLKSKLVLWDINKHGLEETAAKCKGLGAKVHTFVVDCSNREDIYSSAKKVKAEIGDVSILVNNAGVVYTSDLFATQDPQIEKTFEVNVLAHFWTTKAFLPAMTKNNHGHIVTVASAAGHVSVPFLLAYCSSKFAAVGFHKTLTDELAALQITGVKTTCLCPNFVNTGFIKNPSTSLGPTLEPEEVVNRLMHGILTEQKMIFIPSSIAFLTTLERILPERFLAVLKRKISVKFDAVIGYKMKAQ
Briefly: Thermal shift assay (static light scattering, Tagg), human HSD17B11. The following applies: Fig. 6d, 500 μM NAD+. The series is classed as binding. The source says:
Because of the low enzymatic activities of dog wild-type HSD17B13 (Fig. 6a) and HSD17B11 with β-estradiol, it was difficult to measure compound inhibition of these proteins in a biochemical assay and we instead utilized direct binding methods to compare compounds interaction with different proteins. To understand ligand binding, we tested several approaches such as surface plasmon resonance and isothermal calorimetry. Like many membrane/detergent-associated proteins, however, these methods were not amenable for HSD17B13. We next turned to thermal shift assays (TSA) for comparing ligand binding affinities. TSA measures the changes in the thermal denaturation temperature of a protein under different conditions such as the presence compound, changes in buffer conditions, or sequence mutations. There are various readouts including intrinsic fluorescence or light scattering signals. We chose the static light scattering methods to detect the temperatures at which our proteins start to aggregate (Tagg), which are more suitable for membrane proteins that require detergent micelles for stability. Given that in theory[51] and in practice Tagg continues to increase with concentration of ligands far above their IC50s, we used high cofactor and inhibitor concentrations in the TSA experiments to maximize the ligand binding signal.
(§1) TSA studies were run on the UNit instrument (Unchained Labs, CA, USA). Experiments were run in either 25 mM sodium phosphate pH 7, 150 mM NaCl, 10% glycerol, 1 mM TCEP, 0.05% DDM, + different cofactors (NAD^+, NADH, NADP, NADPH; MilliporeSigma) or 25 mM HEPES pH 7.2, 300 mM NaCl, 0.5 mM TCEP, 0.05% DDM, 10% glycerol, ±500 µM NAD^+, and ±100 µM compound 1 (from 2 mM DMSO stock) or DMSO or 50 mM Hepes pH 7.5, 300 mM NaCl, 0.5 mM TCEP, 0.05% DDM, 500 µM NAD^+, ± 50 µM compounds (from 2 mM stock) or DMSO. Protein aggregation was measured by static light scattering at 266 and 473 nm with a 1 °C/sec ramp rate from 20-80 °C. The data was processed using the UNcle software (Unchained Labs, CA, USA), and temperatures at which the protein started aggregation were recorded as Tagg. Reported Tagg and analysis were based on measurements at 266 nm unless otherwise indicated. The protein concentration used was 10.4 μM.

In the next series the target is T2, human HSD17B13 (Homo sapiens, UniProt Q7Z5P4).
T2 construct: human HSD17B13 (residues 2-300, NP_835236.2); 10x His (N); TEV protease site (N); made in house; host or cells: Sf9 (baculovirus)
T2 sequence (Q7Z5P4 2-300): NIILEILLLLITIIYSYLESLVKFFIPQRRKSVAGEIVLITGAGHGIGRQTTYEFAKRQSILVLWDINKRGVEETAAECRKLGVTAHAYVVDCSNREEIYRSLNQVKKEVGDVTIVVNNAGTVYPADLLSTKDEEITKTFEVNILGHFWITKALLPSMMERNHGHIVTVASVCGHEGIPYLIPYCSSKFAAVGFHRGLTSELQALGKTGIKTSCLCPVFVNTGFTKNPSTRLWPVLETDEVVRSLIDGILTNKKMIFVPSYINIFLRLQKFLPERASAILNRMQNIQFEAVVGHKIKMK
The series can be described thus: Thermal shift assay (static light scattering, Tagg), human HSD17B13. The following applies: Fig. 6c; 500 μM NAD+ alone, no compound. The series is classed as binding.
Excerpt: To understand ligand binding, we tested several approaches such as surface plasmon resonance and isothermal calorimetry. […] We next turned to thermal shift assays (TSA) for comparing ligand binding affinities. TSA measures the changes in the thermal denaturation temperature of a protein under different conditions such as the presence compound, changes in buffer conditions, or sequence mutations. There are various readouts including intrinsic fluorescence or light scattering signals. We chose the static light scattering methods to detect the temperatures at which our proteins start to aggregate (Tagg), which are more suitable for membrane proteins that require detergent micelles for stability.
as §1, with “indicated.” for “indicated. The protein concentration used was 10.4 μM.”

Series [1] concerns the target human mutant HSD17B13 (Q60K/I62R/R71H/E161K) (human) (UniProt Q7Z5P4). The series can be described thus: crystal structure; human mutant HSD17B13 with 1 mM NAD+, 1 mM compound 2 and 0.5% β-octyl-glucoside; 25% PEG3350, 0.1 M Bis-Tris pH 5.5, 0.2 M Li2SO4; room temperature.
Series [2] deals with the molecule itself. The series can be described thus: crystal structure; dog HSD17B13 at 12 mg/ml with 1 mM NAD+, 1 mM compound 1 and 0.125% β-octyl-glucoside; 30% PEG3350, 0.2 M ammonium chloride; room temperature; apo crystals by soaking with buffer containing NAD+ only.

Numbering of substitutions follows the chain as printed. Names may count otherwise. “And” between values parts separate entries of the source, which are not always exact repeats. Equal entries are not always repeated.

Take `Cc1ccc(S(=O)(=O)c2cc(C)cc(S(=O)(=O)Nc3ccc(C(=O)O)cc3)c2C)cc1` [Compound 2]: the “effect on protein stability in TSA” value on human HSD17B11 is “neither 1 nor 2 showed an effect on protein stability”. Moreover, the Tagg on human HSD17B11 (50 µM compound) was 40.37 °C and 38.02 °C and 40.65 °C and 41.03 °C and 39.22 °C and 40.82 °C and 39.77 °C and 38.1 °C. Take `NC(=O)c1ccc[n+]([C@@H]2O[C@H](COP(=O)([O-])OP(=O)(O)OC[C@H]3O[C@@H](n4cnc5c(N)ncnc54)[C@H](O)[C@@H]3O)[C@@H](O)[C@H]2O)c1` [NAD, nicotinamide adenine dinucleotide]: the “Tagg, individual measurements” value on human HSD17B13 was 43.6 °C (2×) and 38.9 °C and 40.5 °C and 42 °C and 41.7 °C (2×) and 41 °C. “human mutant HSD17B13 (Q60K/I62R/R71H/E161K) (from UniProt Q7Z5P4-1 20-300) (enzyme)”: the stoichiometry N (usually the number of molecules, sites or subunits per partner or assembly) in series [1] was determined as 2.

B1: dog wild-type HSD17B13 (hydroxysteroid 17-beta-dehydrogenase 13) (enzyme, UniProt A0A8C0PP93 1-300, looked up)
chain: MNIILDLLLLLLTIIYSYLEALVKVFFPRKRKSVAGEIVLITGAGHGIGRWTAYEFAKQKSRLVLWDINKHGVEETAAECRKLGATVHTFVVDCGNREDIYNSVKQVKKEVGDVTILVNNAGTVYPADLLSTKDEEITKTFEINILGHFWITKALLPSMIKRNHGHIVTVASVCGHGVIPYLIPYCSSKFAAVGFHRALTLELQTLGITGIKTSCLCPVFVNTGFTKNPSTRLWPILETDTVARSLIDGILTNKKMIFVPSYYNIYLILDKFLPERALAAINHLQNIQFEAVIGHKTRMK
notes: HSD17B13, dog, AA1-300 of XP_038300006.1; Crystallised with NAD+ and compound 1; the apo (NAD+ only) crystals were made by soaking compound 1 out; It is held in two of the entries PDB 8G84, 8G89, 8G93 and 8G9V; also called Dog WT; dog WT HSD17B13; source: Sf9 (baculovirus), solubilised from membranes with C12E8, purified (NiNTA, SEC)
B1: the “stoichiometry N” value in series [2] came to 2.

B2: dog mutant HSD17B13 (G177E/V178G/T205A/I293V) (enzyme, UniProt A0A8C0PP93 1-300, looked up)
chain: B1 chain with G177E, V178G, T205A, I293V
notes: HSD17B13, dog, AA1-300 of XP_038300006.1, with four residues at the compound 1 site changed to the human ones; It is held in one of the entries PDB 8G84, 8G89, 8G93 and 8G9V; also called dog quadruple mutant; mutated dog HSD17B13; source: Sf9 (baculovirus), solubilised from membranes with C12E8, purified (NiNTA, SEC)
Take B2: the “stoichiometry N” value in series [2] was found to be 2.
